These results are taken from patent publication US9993478B2, “1-pyrazolyl-3-(4-((2-anilinopyrimidin-4-yl) oxy) napththalen-1-yl) ureas as P38 MAP knase inhibitors” (Respivert Ltd., priority 2011, dated 2018).

This data set deals with d-U937 cells. Description: Cell viability: MTT assay. The class given is cell-based, human. Conditions: 1 μg/mL. How it is done: Differentiated U937 cells were pre-incubated with each test compound (final concentration 1 μg/mL or 10 μg/mL in 200 μL media indicated below) under two protocols: the first for 4 hr in 5% FCS RPMI1640 media and the second in 10% FCS RPMI1640 media for 24 h. The supernatant was replaced with new media (200 μL) and MTT stock solution (10 μL, 5 mg/mL) was added to each well. After incubation for 1 hr the media were removed, DMSO (200 μL) was added to each well and the plates were shaken lightly for 1 hr prior to reading the absorbance at 550 nm. The percentage loss of cell viability was calculated for each well relative to vehicle (0.5% DMSO) treatment. Consequently an apparent increase in cell viability for drug treatment relative to vehicle is tabulated as a negative percentage.
For orientation: Tetrazolium assays rely on reduction of a dye to a coloured formazan, in cell work by metabolically active cells.

Each structure is given as a SMILES string.

`Cc1ccc(-n2nc(C(C)(C)C)cc2NC(=O)Nc2ccc(Oc3ccnc(Nc4ccc(O)c(F)c4)n3)c3ccccc23)cc1` [Example 29, 1-(3-(tert-butyl)-1-(p-tolyl)-1H-pyrazol-5-yl)-3-(4-((2-((3-fluoro-4-hydroxyphenyl)amino)pyrimidin-4-yl)oxy)naphthalen-1-yl)urea]: the “MTT Assay Cell viability at time point in d-U937 Cells 4 h” value is “+ve (−ve and +ve indicate the value is below and above respectively, the no significant effect threshold defined as 30% inhibition at 1 μg/mL at the time point indicated)”; the “MTT Assay Cell viability at time point in d-U937 Cells 24 h” value is “−ve (−ve and +ve indicate the value is below and above respectively, the no significant effect threshold defined as 30% inhibition at 1 μg/mL at the time point indicated)”.

For the compound `Cc1ccc(-n2nc(C(C)(C)C)cc2NC(=O)Nc2ccc(Oc3ccnc(Nc4ccc(Cl)cc4C)n3)c3ccccc23)cc1` [Example 18, 1-(3-(tert-butyl)-1-(p-tolyl)-1H-pyrazol-5-yl)-3-(4-((2-((4-chloro-2-methylphenyl)amino)pyrimidin-4-yl)oxy)naphthalen-1-yl)urea], the “MTT Assay Cell viability at time point in d-U937 Cells 4 h” value was “−ve (−ve and +ve indicate the value is below and above respectively, the no significant effect threshold defined as 30% inhibition at 1 μg/mL at the time point indicated)”; the “MTT Assay Cell viability at time point in d-U937 Cells 24 h” value is “−ve (−ve and +ve indicate the value is below and above respectively, the no significant effect threshold defined as 30% inhibition at 1 μg/mL at the time point indicated)”.

Take `COc1ccc(Nc2nccc(Oc3ccc(NC(=O)Nc4cc(C(C)(C)C)nn4-c4ccc(C)cc4)c4ccccc34)n2)cc1OC` [Example 27, 1-(3-(tert-butyl)-1-(p-tolyl)-1H-pyrazol-5-yl)-3-(4-((2-((3,4-dimethoxyphenyl)amino)pyrimidin-4-yl)oxy)naphthalen-1-yl)urea]: the “MTT Assay Cell viability at time point in d-U937 Cells 4 h” value was “+ve (−ve and +ve indicate the value is below and above respectively, the no significant effect threshold defined as 30% inhibition at 1 μg/mL at the time point indicated)”; the “MTT Assay Cell viability at time point in d-U937 Cells 24 h” value was “−ve (−ve and +ve indicate the value is below and above respectively, the no significant effect threshold defined as 30% inhibition at 1 μg/mL at the time point indicated)”.

On to `Cc1ccc(-n2nc(C(C)(C)C)cc2NC(=O)Nc2ccc(Oc3ccnc(Nc4ccccc4Cl)n3)c3ccccc23)cc1` [Example 6, 1-(3-(tert-butyl)-1-(p-tolyl)-1H-pyrazol-5-yl)-3-(4-((2-((2-chlorophenyl)amino)pyrimidin-4-yl)oxy)naphthalen-1-yl)urea], for which the “MTT Assay Cell viability at time point in d-U937 Cells 4 h” value is “−ve (−ve and +ve indicate the value is below and above respectively, the no significant effect threshold defined as 30% inhibition at 1 μg/mL at the time point indicated)”; the “MTT Assay Cell viability at time point in d-U937 Cells 24 h” value was “−ve (−ve and +ve indicate the value is below and above respectively, the no significant effect threshold defined as 30% inhibition at 1 μg/mL at the time point indicated)”.

Consider `Cc1ccc(-n2nc(C(C)(C)C)cc2NC(=O)Nc2ccc(Oc3ccnc(Nc4ccc(O)cc4Cl)n3)c3ccccc23)cc1` [Example 31, 1-(3-(tert-butyl)-1-(p-tolyl)-1H-pyrazol-5-yl)-3-(4-((2-((2-chloro-4-hydroxyphenyl)amino)pyrimidin-4-yl)oxy)naphthalen-1-yl)urea], for which the “MTT Assay Cell viability at time point in d-U937 Cells 4 h” value was “−ve (−ve and +ve indicate the value is below and above respectively, the no significant effect threshold defined as 30% inhibition at 1 μg/mL at the time point indicated)”; the “MTT Assay Cell viability at time point in d-U937 Cells 24 h” value was “−ve (−ve and +ve indicate the value is below and above respectively, the no significant effect threshold defined as 30% inhibition at 1 μg/mL at the time point indicated)”.

For `CC(C)(C)c1cc(NC(=O)Nc2ccc(Oc3ccnc(Nc4ccccc4)n3)c3ccccc23)n(-c2ccc(O)cc2)n1` [Example 3, 1-(3-(tert-butyl)-1-(4-hydroxyphenyl)-1H-pyrazol-5-yl)-3-(4-((2-(phenylamino)pyrimidin-4-yl)oxy)naphthalen-1-yl)urea], the “MTT Assay Cell viability at time point in d-U937 Cells 4 h” value was “−ve (−ve and +ve indicate the value is below and above respectively, the no significant effect threshold defined as 30% inhibition at 1 μg/mL at the time point indicated)”; the “MTT Assay Cell viability at time point in d-U937 Cells 24 h” value was “−ve (−ve and +ve indicate the value is below and above respectively, the no significant effect threshold defined as 30% inhibition at 1 μg/mL at the time point indicated)”.

`Cc1ccc(-n2nc(C(C)(C)C)cc2NC(=O)Nc2ccc(Oc3ccnc(Nc4ccc(Cl)cc4)n3)c3ccccc23)cc1` [Example 16, 1-(3-(tert-butyl)-1-(p-tolyl)-1H-pyrazol-5-yl)-3-(4-((2-((4-chlorophenyl)amino)pyrimidin-4-yl)oxy)naphthalen-1-yl)urea]: the “MTT Assay Cell viability at time point in d-U937 Cells 4 h” value is “−ve (−ve and +ve indicate the value is below and above respectively, the no significant effect threshold defined as 30% inhibition at 1 μg/mL at the time point indicated)”; the “MTT Assay Cell viability at time point in d-U937 Cells 24 h” value was “−ve (−ve and +ve indicate the value is below and above respectively, the no significant effect threshold defined as 30% inhibition at 1 μg/mL at the time point indicated)”.

As to `COc1ccccc1Nc1nccc(Oc2ccc(NC(=O)Nc3cc(C(C)(C)C)nn3-c3ccc(C)cc3)c3ccccc23)n1` [Example 5, 1-(3-(tert-butyl)-1-(p-tolyl)-1H-pyrazol-5-yl)-3-(4-((2-((2-methoxyphenyl)amino)pyrimidin-4-yl)oxy)naphthalen-1-yl)urea], the “MTT Assay Cell viability at time point in d-U937 Cells 4 h” value was “−ve (−ve and +ve indicate the value is below and above respectively, the no significant effect threshold defined as 30% inhibition at 1 μg/mL at the time point indicated)”; the “MTT Assay Cell viability at time point in d-U937 Cells 24 h” value was “−ve (−ve and +ve indicate the value is below and above respectively, the no significant effect threshold defined as 30% inhibition at 1 μg/mL at the time point indicated)”.

Consider `COc1ccc(Nc2nccc(Oc3ccc(NC(=O)Nc4cc(C(C)(C)C)nn4-c4ccc(C)cc4)c4ccccc34)n2)c(OC)c1` [Example 8, 1-(3-(tert-butyl)-1-(p-tolyl)-1H-pyrazol-5-yl)-3-(4-((2-((2,4-dimethoxyphenyl)amino)pyrimidin-4-yl)oxy)naphthalen-1-yl)urea], for which the “MTT Assay Cell viability at time point in d-U937 Cells 4 h” value is “−ve (−ve and +ve indicate the value is below and above respectively, the no significant effect threshold defined as 30% inhibition at 1 μg/mL at the time point indicated)”; the “MTT Assay Cell viability at time point in d-U937 Cells 24 h” value was “−ve (−ve and +ve indicate the value is below and above respectively, the no significant effect threshold defined as 30% inhibition at 1 μg/mL at the time point indicated)”.

Turning to `COc1ccc(-n2nc(C(C)(C)C)cc2NC(=O)Nc2ccc(Oc3ccnc(Nc4ccccc4)n3)c3ccccc23)cc1` [Example 7, 1-(3-(tert-butyl)-1-(4-methoxyphenyl)-1H-pyrazol-5-yl)-3-(4-((2-(phenylamino)pyrimidin-4-yl)oxy)naphthalen-1-yl)urea], the “MTT Assay Cell viability at time point in d-U937 Cells 4 h” value was “−ve (−ve and +ve indicate the value is below and above respectively, the no significant effect threshold defined as 30% inhibition at 1 μg/mL at the time point indicated)”; the “MTT Assay Cell viability at time point in d-U937 Cells 24 h” value was “−ve (−ve and +ve indicate the value is below and above respectively, the no significant effect threshold defined as 30% inhibition at 1 μg/mL at the time point indicated)”.

On to `Cc1ccc(-n2nc(C(C)(C)C)cc2NC(=O)Nc2ccc(Oc3ccnc(Nc4ccc(O)cc4C)n3)c3ccccc23)cc1` [Example 24, 1-(3-(tert-butyl)-1-(p-tolyl)-1H-pyrazol-5-yl)-3-(4-((2-((4-hydroxy-2-methylphenyl)amino)pyrimidin-4-yl)oxy)naphthalen-1-yl)urea], for which the “MTT Assay Cell viability at time point in d-U937 Cells 4 h” value is “−ve (−ve and +ve indicate the value is below and above respectively, the no significant effect threshold defined as 30% inhibition at 1 μg/mL at the time point indicated)”; the “MTT Assay Cell viability at time point in d-U937 Cells 24 h” value is “−ve (−ve and +ve indicate the value is below and above respectively, the no significant effect threshold defined as 30% inhibition at 1 μg/mL at the time point indicated)”.

Regarding `COc1cc(Nc2nccc(Oc3ccc(NC(=O)Nc4cc(C(C)(C)C)nn4-c4ccc(C)cc4)c4ccccc34)n2)ccc1O` [Example 25, 1-(3-(tert-butyl)-1-(p-tolyl)-1H-pyrazol-5-yl)-3-(4-((2-((4-hydroxy-3-methoxyphenyl)amino)pyrimidin-4-yl)oxy)naphthalen-1-yl)urea], the “MTT Assay Cell viability at time point in d-U937 Cells 4 h” value is “−ve (−ve and +ve indicate the value is below and above respectively, the no significant effect threshold defined as 30% inhibition at 1 μg/mL at the time point indicated)”; the “MTT Assay Cell viability at time point in d-U937 Cells 24 h” value was “−ve (−ve and +ve indicate the value is below and above respectively, the no significant effect threshold defined as 30% inhibition at 1 μg/mL at the time point indicated)”.

Consider `Cc1ccc(-n2nc(C(C)(C)C)cc2NC(=O)Nc2ccc(Oc3ccnc(Nc4cccc(C)c4)n3)c3ccccc23)cc1` [Example 12, 1-(3-(tert-butyl)-1-(p-tolyl)-1H-pyrazol-5-yl)-3-(4-((2-(m-tolylamino)pyrimidin-4-yl)oxy)naphthalen-1-yl)urea], for which the “MTT Assay Cell viability at time point in d-U937 Cells 4 h” value was “−ve (−ve and +ve indicate the value is below and above respectively, the no significant effect threshold defined as 30% inhibition at 1 μg/mL at the time point indicated)”; the “MTT Assay Cell viability at time point in d-U937 Cells 24 h” value is “−ve (−ve and +ve indicate the value is below and above respectively, the no significant effect threshold defined as 30% inhibition at 1 μg/mL at the time point indicated)”.
